We go through eleven compounds from PubChem BioAssay (NCI).

Among the test systems are NCI-H460 lung; 786-0 renal; SN12C renal; ACHN renal; LOX IMVI melanoma; TK-10 renal; HCT-116 colon; SW-620 colon.
Common to all, as to test: NCI-60 cell line screen, 48 h

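In this assay, cells in 96-well plates receive the compound at five concentrations for 48 hours. Endpoints are linearly interpolated between the surrounding concentrations. GI50 is the concentration that inhibits growth by half. TGI: total growth inhibition.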

On to `S=c1ssc(N2CCOCC2)c1Cl`, for which the GI50 in the assay with NCI-H460 lung was 21.5 µM; in the assay with 786-0 renal, greater than 100 µM; in the assay with SN12C renal, 72.7 µM; in the assay on ACHN renal it was 78.5 µM; in the assay with LOX IMVI melanoma, 17.7 µM; with TK-10 renal, 16 µM. For the same compound, the TGI with NCI-H460 lung is 67 µM; in the assay with 786-0 renal, greater than 100 µM; with SN12C renal, greater than 100 µM; in the assay with ACHN renal, greater than 100 µM; in the assay with LOX IMVI melanoma, 37.8 µM; in the assay with TK-10 renal it was greater than 100 µM.

As to `C/C(=N\Nc1ccc(Cl)cn1)c1ccc2ccccc2n1`, the GI50 is 2.92 µM in the assay with NCI-H460 lung; 1.59 µM in the assay on HCT-116 colon; 3.83 µM in the assay with SW-620 colon; 2.44 µM in the assay with 786-0 renal; 3.19 µM in the assay with SN12C renal; 2.49 µM in the assay with ACHN renal. Moreover, the GI50 in the assay on LOX IMVI melanoma is 2.02 µM; in the assay with TK-10 renal, 6.31 µM. Moreover, the TGI in the assay with NCI-H460 lung was 19.6 µM; in the assay on HCT-116 colon, greater than 100 µM; in the assay with SW-620 colon, greater than 100 µM; with 786-0 renal it was 7.55 µM; in the assay with SN12C renal, greater than 100 µM; in the assay on ACHN renal, greater than 100 µM. Also, the TGI with LOX IMVI melanoma and in the assay with TK-10 renal was greater than 100 µM throughout.

For `COc1cc2c(cc1OCCCCC(=O)Nc1cc3c4ccccc4ccc3c3ccccc13)N=C[C@@H]1CCCN1C2=O`, the GI50 in the assay on NCI-H460 lung is 5.33 µM; in the assay with HCT-116 colon, 25.1 µM; with SW-620 colon it was 3.68 µM; in the assay with 786-0 renal, 7.21 µM; in the assay with SN12C renal, 22.6 µM; in the assay with ACHN renal it was 38.8 µM. For the same compound, the figures for the GI50 in the assay on LOX IMVI melanoma and with TK-10 renal were 32.1 µM and 2.33 µM, respectively. Also, the TGI with NCI-H460 lung is 51.5 µM; with HCT-116 colon, 88.8 µM; in the assay with SW-620 colon, greater than 100 µM; with 786-0 renal, 18.8 µM; with SN12C renal, 89.3 µM; in the assay with ACHN renal, greater than 100 µM. In addition, the TGI is greater than 100 µM in the assay on LOX IMVI melanoma and 5.73 µM in the assay on TK-10 renal.

As to `COc1ccc(C(=O)c2cc(OC)c(OC)c(OC)c2)cc1/C=C/C(=O)c1ccc(F)cc1`, the GI50 with NCI-H460 lung is 16 µM; in the assay with HCT-116 colon, 1.75 µM; with SW-620 colon, 2.53 µM; with 786-0 renal, 2.15 µM; in the assay on SN12C renal it was 2.62 µM; in the assay with ACHN renal it was 1.68 µM. In the assay with TK-10 renal, the GI50 is 4.43 µM. Besides, the TGI amounted to 52.7 µM with NCI-H460 lung; 3.57 µM in the assay with HCT-116 colon; 7.44 µM in the assay on SW-620 colon; 5.57 µM with 786-0 renal; 8.18 µM with SN12C renal; 3.23 µM with ACHN renal. This compound had a TGI with TK-10 renal of 30.9 µM.

Take `COc1ccc(/C=C/c2c(C(=O)/C=C/c3ccccc3)c(C)nc3ccccc23)cc1`: the GI50 in the assay on HCT-116 colon is 1.03 µM; in the assay on SW-620 colon, 2.12 µM; in the assay on 786-0 renal, 1.76 µM; in the assay on SN12C renal, 2.05 µM; with ACHN renal, 1.68 µM; in the assay with LOX IMVI melanoma, 1.69 µM. Moreover, the GI50 with TK-10 renal is 2.55 µM. Also, the TGI was 2.6 µM in the assay on HCT-116 colon; 6.34 µM in the assay on SW-620 colon; 3.31 µM in the assay with 786-0 renal; 4.63 µM in the assay on SN12C renal; 3.1 µM with ACHN renal; 3.08 µM in the assay with LOX IMVI melanoma. Moreover, the TGI with TK-10 renal was determined as 5.73 µM.

On to `CCc1nc2cc(F)c(/C=C/C(=O)NO)cc2c(=O)n1CCc1ccccc1`, for which the GI50 was 0.31 µM in the assay on NCI-H460 lung; 0.313 µM with HCT-116 colon; 0.336 µM in the assay on SW-620 colon; 0.309 µM with 786-0 renal; 0.343 µM in the assay with ACHN renal; 0.208 µM with LOX IMVI melanoma. The GI50 in the assay with TK-10 renal was 0.256 µM. Further, the TGI in the assay with NCI-H460 lung is 3.17 µM; in the assay with HCT-116 colon it was 11 µM; with SW-620 colon it was 12.1 µM; with 786-0 renal, 2.03 µM; with ACHN renal, 2.56 µM; in the assay with LOX IMVI melanoma it was 0.46 µM. Further, the TGI in the assay on TK-10 renal worked out at 0.838 µM.

As for `CCOC(=O)C1CCN(S(=O)(=O)/N=C2/NC(=O)NC2=C(Cl)Cl)CC1`, the GI50 is 3.19 µM in the assay with NCI-H460 lung; 0.736 µM with HCT-116 colon; 2.09 µM in the assay on SW-620 colon; 0.545 µM in the assay on 786-0 renal; 1.55 µM in the assay on SN12C renal; 1.83 µM with ACHN renal. Besides, the GI50 in the assay with TK-10 renal is 1.25 µM. Besides, the TGI with NCI-H460 lung was 11.4 µM; in the assay on HCT-116 colon, 2.48 µM; in the assay with SW-620 colon it was 4.37 µM; in the assay with 786-0 renal it was 6.64 µM; with SN12C renal it was 3.1 µM; in the assay on ACHN renal, 3.32 µM. In addition, the TGI with TK-10 renal was greater than 100 µM.

Consider `Cc1cc(NC(=S)SCc2ccc(F)cc2)c([N+](=O)[O-])cc1C`, for which the TGI with NCI-H460 lung is greater than 100 µM; with HCT-116 colon, greater than 100 µM; in the assay on SW-620 colon it was greater than 100 µM; with 786-0 renal it was greater than 100 µM; in the assay on SN12C renal, 48.4 µM; with ACHN renal it was greater than 100 µM. This compound showed a TGI in the assay with TK-10 renal of 65.4 µM.

As to `CC12OC(C(=O)C13CC3)C1C(=O)c3ccc4c(ccc5ccccc54)c3C(=O)C12` (stereo not drawn), the GI50 was 15.6 µM in the assay with NCI-H460 lung, 43.7 µM in the assay on HCT-116 colon, 25.3 µM in the assay with 786-0 renal and 37.1 µM with TK-10 renal. In addition, the TGI was 55.6 µM with NCI-H460 lung, greater than 100 µM in the assay with HCT-116 colon, greater than 100 µM in the assay with 786-0 renal and greater than 100 µM with TK-10 renal.

As for `Cc1cc2ncnn2cc1Nc1ncc2c(n1)n(C1CCOCC1)c(=O)n2C`, the GI50 in the assay on NCI-H460 lung is 4.74 µM; in the assay on HCT-116 colon, 10.7 µM; with SW-620 colon it was 18.1 µM; in the assay with 786-0 renal, 8.29 µM; with SN12C renal, 6.21 µM; in the assay on ACHN renal, 9.97 µM. In the assay on LOX IMVI melanoma, the GI50 is 5.92 µM. The TGI with NCI-H460 lung is greater than 100 µM; in the assay on HCT-116 colon it was greater than 100 µM; in the assay with SW-620 colon, greater than 100 µM; with 786-0 renal, 94.8 µM; with SN12C renal, greater than 100 µM; with ACHN renal, greater than 100 µM. In the assay with LOX IMVI melanoma, this compound gave a TGI greater than 100 µM.

For `C=C(C)[C@@H]1CC[C@]2(CO)CC[C@]3(C)[C@H](CC[C@@H]4[C@@]5(C)C=C(C#N)C(=O)C(C)(C)[C@@H]5CC[C@]43C)[C@@H]12`, the GI50 with NCI-H460 lung was 1.37 µM; in the assay with SW-620 colon, 2.24 µM; in the assay with 786-0 renal it was 1.92 µM; in the assay on SN12C renal it was 1.17 µM; with ACHN renal it was 1.72 µM; in the assay with LOX IMVI melanoma it was 1.18 µM. Moreover, in the assay with TK-10 renal, the GI50 is 2.09 µM. Further, the TGI in the assay on NCI-H460 lung amounted to 5.17 µM; with SW-620 colon, 5.12 µM; with 786-0 renal it was 3.98 µM; in the assay on SN12C renal it was 4.27 µM; with ACHN renal, 4.77 µM; in the assay with LOX IMVI melanoma, 2.68 µM. The compound also registered a TGI in the assay on TK-10 renal of 6.06 µM.
